Source: patent US20240294551A1 (AMGEN INC., priority 2022, published 2024)
Like-named read-outs stand apart in the source and are kept apart here.

Legend:
[1] = target: His-tagged KRAS G12D protein (Homo sapiens (Human), UniProt P01116, G12D); test: KRAS G12D TR-FRET Assay; format: binding
In short: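 Each incubation ran at room temperature: enzyme with compound for 30 minutes, peptide for one hour, and detection reagents (0.4 nM europium anti-6×His, 5 nM streptavidin-d2) for one hour more. Protein and peptide stocks were each diluted to 20 nM before addition.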

[2] = system: Phosphorylation of ERK1/2 in AsPC-1 cells; test: Phospho-ERK1/2 MSD Assay; format: cell-based, human
In short: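 Read-out: MSD electrochemiluminescent detection of phosphorylated ERK1/2 in whole-cell lysates, fitted to a 4-parameter logistic curve for IC50. Prior to lysis, AsPC-1 cells (25,000 per well) received a 2 h compound dose-response at 37 °C.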

[3] = target: GDP-bound KRAS protein (aa 1-169), containing both G12D and C118A amino acid substitutions (Homo sapiens (Human), UniProt P01116, C118A/G12D); test: KRAS G12D Coupled Nucleotide Exchange Assay; format: biochemical
[4] = system: AsPC-1 cells; test: AsPC-1 CTG Assay (CellTiter-Glo cell viability); format: cell-based, human; conditions: first value of the cell, read-out: G12D/C/V Cell Proliferation CTG (72 h) AsPC-1
Experimental: AsPC-1 and SW620 CTG Assay Protocols
AsPC-1 (human pancreatic adenocarcinoma; ATCC CRL-1682) or SW620 (human colon adenocarcinoma; ATCC CCL-227) cells were cultured in RPMI 1640 medium containing 10% fetal bovine serum and 1× penicillin/streptomycin/L-glutamine. Cells were seeded in 384-well plates at a density of 3.33E+04 cells/mL and incubated at 37° C., 5% CO2, overnight. Serially-diluted compound or DMSO was added to the cells, and plates were incubated at 37° C., 5% CO2 for 72 h. Cell viability was measured using a CellTiter-Glo® Luminescent Cell Viability Assay kit (Promega) according to the manufacturer's protocol. The luminescence signal of treated samples was normalized to DMSO control, and data were analyzed using a 4-parameter logistic model to calculate IC50 values.

[5] = read-out: KRAS G12D Binding IC50
[6] = read-out: KRAS G12D Coupled Exchange IC50
[7] = Homo sapiens, ASPC1, 2 h, read-out: 2 h p-ERK (AsPC-1 cells), IC50
[8] = Homo sapiens, ASPC1, 72 h, AsPC-1, 72 h
[9] = Homo sapiens, ASPC1, 2 h, read-out: 2 h p-ERK (AsPC-1 cells)

Chain of His-tagged KRAS G12D protein (P01116 other isoform, or with tags, fused parts or gaps G12D): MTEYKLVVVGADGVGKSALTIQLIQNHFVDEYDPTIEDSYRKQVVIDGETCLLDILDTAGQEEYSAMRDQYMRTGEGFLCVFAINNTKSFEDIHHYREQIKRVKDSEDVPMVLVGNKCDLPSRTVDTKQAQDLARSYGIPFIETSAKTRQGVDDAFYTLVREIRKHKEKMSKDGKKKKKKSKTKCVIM
Chain of GDP-bound KRAS protein (aa 1-169), containing both G12D and C118A amino acid substitutions (P01116 other isoform, or with tags, fused parts or gaps G12D/C118A): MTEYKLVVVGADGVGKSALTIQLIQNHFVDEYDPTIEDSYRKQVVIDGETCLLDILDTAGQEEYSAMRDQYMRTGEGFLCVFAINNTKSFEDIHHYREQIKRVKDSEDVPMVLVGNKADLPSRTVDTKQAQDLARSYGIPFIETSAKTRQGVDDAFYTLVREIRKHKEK

Row | SMILES | IC50 [1, 5] [nM] | IC50 [3, 6] [nM] | IC50 [2, 7] [nM] | also measured
1 | Fc1c2ncc3c(nc(OC[C@@]45CCCN4C[C@H](F)C5)nc13)N1CCC[C@H](C1)c1coc(n1)CCCc1c(Cl)cc3[nH]ncc3c1-2 [Example 157, (18R)-9-chloro-31-fluoro-25-(((2R,7aS)-2-fluorotetrahydro-1H-pyrrolo[1,2-a]pyrrol-7a(5H)-yl)methoxy)-15-oxa-5,6,22,24,26,30,33-heptaazaheptacyclo[25.3.1.1~14,17~.1~18,22~.0~2,10~.0~3,7~.0~23,28~]tritriaconta-1(31),2,4,7,9,14(33),16,23,25,27,29-undecaene] | – | – | 7 | IC50 [4, 8]: 60 nM
2 | O=C1OCCc2c(Cl)cc3[nH]ncc3c2-c2ncc3c(nc(OC[C@@]45CCCN4C[C@H](F)C5)nc3c2F)N2CCC[C@]3(C[C@@H](CO3)O1)C2 [Example 315, (1S,4S)-11-chloro-33-fluoro-25-(((2R,7aS)-2-fluorotetrahydro-1H-pyrrolo[1,2-a]pyrrol-7a(5H)-yl)methoxy)-2,5,7-trioxa-14,15,20,24,26,28-hexaazaheptacyclo[26.3.1.1~1,4~.1~19,23~.0~10,18~.0~13,17~.0~22,27~]tetratriaconta-10,12,15,17,19(33),20,22,24,26-nonaen-6-one] | – | – | 20.8 | IC50 [4, 8]: 23 nM
3 | C[C@]12C[C@]3(CN(CCO3)c3nc(OC[C@@]45CCCN4C[C@H](F)C5)nc4c(F)c(ncc34)-c3c(c(Cl)cc4[nH]ncc34)CCOC(=O)O1)C2 [Example 322, (1S,3S)-10-chloro-32-fluoro-24-(((2R,7aS)-2-fluorotetrahydro-1H-pyrrolo[1,2-a]pyrrol-7a(5H)-yl)methoxy)-3-methyl-4,6,30-trioxa-13,14,19,23,25,27-hexaazaheptacyclo[25.3.1.1~1,3~.1~18,22~.0~9,17~.0~12,16~.0~21,26~]tritriaconta-9,11,14,16,18(32),19,21,23,25-nonaen-5-one] | 366 | 156 | 589 | –
4 | Cn1ncc2cc(Cl)c3c(c21)-c1ncc2c(nc(OC[C@@]45CCCN4C[C@H](F)C5)nc2c1F)N1CCOC[C@H](C1)OC(=O)OCCC3 [Example 335, (26S)-18-chloro-32-fluoro-4-(((2R,7aS)-2-fluorotetrahydro-1H-pyrrolo[1,2-a]pyrrol-7a(5H)-yl)methoxy)-13-methyl-23,25,28-trioxa-1,3,5,9,13,14-hexaazahexacyclo[24.4.1.1~6,10~.0~2,7~.0~11,19~.0~12,16~]dotriaconta-2,4,6,8,10(32),11,14,16,18-nonaen-24-one] | 44 | 9 | 1260 | –
5 | O=C1OCCCc2c(Cl)cc3[nH]ncc3c2-c2ncc3c(nc(OC[C@@]45CCCN4C[C@H](F)C5)nc3c2F)N2CCCC[C@@](CF)(C2)O1 [Example 339, (26S)-18-chloro-32-fluoro-26-(fluoromethyl)-4-(((2R,7aS)-2-fluorotetrahydro-1H-pyrrolo[1,2-a]pyrrol-7a(5H)-yl)methoxy)-23,25-dioxa-1,3,5,9,14,15-hexaazahexacyclo[24.4.1.1~6,10~.0~2,7~.0~11,19~.0~12,16~]dotriaconta-2,4,6,8,10(32),11,13,16,18-nonaen-24-one] | 1350 | 501 | 826 | –
6 | CN1CCC(Oc2nc3c4cnc(c(F)c4n2)-c2c(c(Cl)cc4[nH]ncc24)CCCOC(=O)O[C@@H]2COCCN3C2)CC1.O=C(O)C(F)(F)F [Example 370, (26S)-18-Chloro-32-fluoro-4-((1-methyl-4-piperidinyl)oxy)-23,25,28-trioxa-1,3,5,9,14,15-hexaazahexacyclo[24.4.1.1˜6,10˜.0˜2,7˜.0˜11,19˜.0˜12,16˜]dotriaconta-2,4,6,8,10(32),11,13,16,18-nonaen-24-one trifluoroacetate] | 36 | 18 | 708 | –
7 | Fc1c2ncc3c(nc(OC[C@@]45CCCN4C[C@H](F)C5)nc13)N1CCC[C@H](C1)c1cnc(o1)CCCc1c(Cl)cc3[nH]ncc3c1-2 [Example 387, (18R)-9-chloro-31-fluoro-25-(((2R,7aS)-2-fluorotetrahydro-1H-pyrrolo[1,2-a]pyrrol-7a(5H)-yl)methoxy)-33-oxa-5,6,15,22,24,26,30-heptaazaheptacyclo[25.3.1.1~14,17~.1~18,22~.0~2,10~.0~3,7~.0~23,28~]tritriaconta-1(31),2,4,7,9,14,16,23,25,27,29-undecaene] | – | – | – | IC50 ([1]; TR-FRET, read-out: KRAS G12D Binding): 8 nM; IC50 [2, 9]: 66.3 nM; IC50 ([3]; 2 hours compound pre-incubation, read-out: KRAS G12D Coupled Exchange): 4 nM
8 | O[C@@H]1CCOCCc2c(Cl)cc3[nH]ncc3c2-c2ncc3c(nc(OC[C@@]45CCCN4C[C@H](F)C5)nc3c2F)N2CCC[C@@H]1C2 [Example 404, (16R,17R)-9-Chloro-30-fluoro-24-(((2R,7aS)-2-fluorotetrahydro-1H-pyrrolo[1,2-a]pyrrol-7a(5H)-yl)methoxy)-13-oxa-5,6,21,23,25,29-hexaazahexacyclo[24.3.1.1~17,21~.0~2,10~.0~3,7~.0~22,27~]hentriaconta-1(30),2,4,7,9,22,24,26,28-nonaen-16-ol] | – | – | – | IC50 [2, 9]: 236 nM; IC50 ([4]; Homo sapiens, ASPC1, 72 h, AsPC-1 cells (G12D), 72 h): 1570 nM

The next lines start with results.

Row | IC50 [1, 5] [nM] | IC50 [3, 6] [nM] | IC50 [2, 7] [nM] | SMILES | also measured
9 | 10 | 6 | – | Cc1c2ncc3c(nc(OC[C@@]45CCCN4C[C@H](F)C5)nc13)N1CCOC[C@H](C1)OC(=O)OCCCc1c(Cl)cc3[nH]ncc3c1-2 (atropisomer, axis not shown) [Example 341, (26S)-18-chloro-4-(((2R,7aS)-2-fluorotetrahydro-1H-pyrrolo[1,2-a]pyrrol-7a(5H)-yl)methoxy)-32-methyl-23,25,28-trioxa-1,3,5,9,14,15-hexaazahexacyclo[24.4.1.1~6,10~.0~2,7~.0~11,19~.0~12,16~]dotriaconta-2,4,6,8,10(32),11,13,16,18-nonaen-24-one] | IC50 ([2]; 2 h, read-out: 2 h p-ERK (AsPC-1 cells), IC50): 65.5 nM; IC50 ([4]; AsPC-1, 72 h): 889 nM
10 | – | – | 133 | CC12COCCN(C1)c1nc(OC[C@@]34CCCN3C[C@H](F)C4)nc3cc(nnc13)-c1c(c(Cl)cc3[nH]ncc13)CCCOC(=O)O2 (stereo in doubt) [Example 362, (26R)-18-chloro-4-(((2R,7aS)-2-fluorotetrahydro-1H-pyrrolo[1,2-a]pyrrol-7a(5H)-yl)methoxy)-26-methyl-23,25,28-trioxa-1,3,5,8,9,14,15-heptaazahexacyclo[24.4.1.1~6,10~.0~2,7~.0~11,19~.0~12,16~]dotriaconta-2,4,6(32),7,9,11,13,16,18-nonaen-24-one] | IC50 [4, 8]: 1450 nM
11 | 27 | 7 | 200 | CN1CCN(c2nc3c4cnc(c(F)c4n2)-c2c(c(Cl)cc4[nH]ncc24)CCCOC(=O)O[C@@H]2COCCN3C2)CC1 [Example 347, (26S)-18-chloro-32-fluoro-4-(4-methyl-1-piperazinyl)-23,25,28-trioxa-1,3,5,9,14,15-hexaazahexacyclo[24.4.1.1~6,10~.0~2,7~.0~11,19~.0~12,16~]dotriaconta-2,4,6,8,10(32),11,13,16,18-nonaen-24-one] | –
12 | – | 2 | 8.2 | [2H]C([2H])([2H])[C@@]12COCCN(C1)c1nc(OC[C@@]34CCCN3C[C@H](F)C4)nc3c(F)c(ncc13)-c1c(c(C)cc3[nH]ncc13)CCCOC(=O)O2 [Example 352, (26S)-32-fluoro-4-(((2R,7aS)-2-fluorotetrahydro-1H-pyrrolo[1,2-a]pyrrol-7a(5H)-yl)methoxy)-18-methyl-26-(~2~H_3_)methyl-23,25,28-trioxa-1,3,5,9,14,15-hexaazahexacyclo[24.4.1.1~6,10~.0~2,7~.0~11,19~.0~12,16~]dotriaconta-2,4,6,8,10(32),11,13,16,18-nonaen-24-one] | IC50 [4, 8]: 103 nM
13 | 24 | 16 | 384 | Cc1cc2[nH]ncc2c2c1CCOC(=O)O[C@H]1C[C@]3(CCCN(C3)c3nc(OC[C@@]45CCCN4C[C@H](F)C5)nc4cc-2nnc34)C1 [Example 358, (1R,3S)-24-(((2R,7aS)-2-fluorotetrahydro-1H-pyrrolo[1,2-a]pyrrol-7a(5H)-yl)methoxy)-10-methyl-4,6-dioxa-13,14,19,20,23,25,27-heptaazaheptacyclo[25.3.1.1~1,3~.1~18,22~.0~9,17~.0~12,16~.0~21,26~]tritriaconta-9,11,14,16,18(32),19,21,23,25-nonaen-5-one] | –
14 | 8 | 4 | 239 | O=C1OCCc2c(F)ccc3cccc(c23)-c2ncc3c(nc(OC[C@@]45CCCN4C[C@H](F)C5)nc3c2F)N2CCOC[C@H](C2)O1 [Example 371] | –
